Results reported in ChEMBL document CHEMBL4190237, “Recent developments in biological activities of indanones” (Eur J Med Chem, 2017).

Key:
Acetylcholinesterase = Acetylcholinesterase (Electrophorus electricus, UniProt O42275); assay: Inhibition of electric eel AChE using acetylthiocholine iodide as substrate after 1 min by Ellman's method
Klebsiella pneumoniae = assay: Antibacterial activity against Klebsiella pneumoniae assessed as growth inhibition; assay type: functional
Jurkat = assay: Cytotoxicity against human Jurkat cells assessed as cell growth inhibition by MTT assay; assay type: functional, cell-based
Candida albicans = assay: Antifungal activity against Candida albicans MTCC 227 assessed as zone of inhibition at 50 mg/ml after 24 hrs by agar disc-diffusion method; assay type: functional; conditions: MTCC 227, 24 h, read-out: IZ
HeLa = assay: Cytotoxicity against human HeLa cells; assay type: functional, cell-based
K562 = assay: Cytotoxicity against human K562 cells; assay type: functional, cell-based
[1] = test system: Bovine viral diarrhea virus 1; assay: Antiviral activity against BVDV infected in MDBK cells assessed as protection against virus-induced cytopathic effect after 3 days by MTS/PMS assay; assay type: functional, organism-based; conditions: Bovine viral diarrhea virus isolates and strains, 72 h

Sequence of Acetylcholinesterase (O42275 whole entry): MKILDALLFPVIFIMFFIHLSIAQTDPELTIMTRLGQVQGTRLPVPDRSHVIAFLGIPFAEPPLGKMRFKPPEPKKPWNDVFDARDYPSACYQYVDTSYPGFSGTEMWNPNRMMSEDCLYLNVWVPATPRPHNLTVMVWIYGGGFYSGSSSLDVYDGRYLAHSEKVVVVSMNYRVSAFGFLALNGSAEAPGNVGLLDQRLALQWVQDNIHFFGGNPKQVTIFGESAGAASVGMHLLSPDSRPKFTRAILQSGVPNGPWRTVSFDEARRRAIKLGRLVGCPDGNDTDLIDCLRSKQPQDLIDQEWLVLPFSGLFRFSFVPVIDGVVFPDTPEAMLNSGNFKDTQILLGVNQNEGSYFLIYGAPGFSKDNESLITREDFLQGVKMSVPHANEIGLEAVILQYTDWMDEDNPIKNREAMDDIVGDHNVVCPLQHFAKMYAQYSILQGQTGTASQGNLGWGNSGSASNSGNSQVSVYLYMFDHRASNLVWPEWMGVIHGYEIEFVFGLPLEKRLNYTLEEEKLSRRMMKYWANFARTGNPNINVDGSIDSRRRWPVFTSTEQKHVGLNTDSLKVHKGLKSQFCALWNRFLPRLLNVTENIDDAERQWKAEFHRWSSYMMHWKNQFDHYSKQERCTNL

Question: For `NNc1ccc(C(=O)NCCCCCOc2ccc3c(c2)CC(CN2CCC(Cc4ccccc4)CC2)C3=O)cn1` (configuration not stated), which IC50 (Acetylcholinesterase) is on record?
Answer: 1.09 µM

Question: For `COc1cc2c(cc1OC)C(=O)/C(=C/c1cccc(/C=C/c3ccc4ccc(Cl)cc4n3)c1)C2`, which “growth inhibition (GI)” value (Klebsiella pneumoniae) is on record?
Answer: 11.23%

Question: For `COc1cc2c(c(N)c1OC)C/C(=C\c1cc(C)c(O)c(C)c1)C2=O`, which IC50 (Jurkat) is on record?
Answer: 0.001 µM

Question: With `COc1cccc(-c2c(C#N)c(N)n(/N=C3\CCc4cc(OC)c(OC)cc43)c(=O)c2C#N)c1` as the compound, how does the zone of inhibition at 50000 µg/mL (Candida albicans) read?
Answer: 23 mm

Question: What does the source list for `COc1cc(OC)c2c(c1)C(=O)CC2c1ccc(Br)cc1` (configuration not stated)?
Answer: IC50 (HeLa): 60 µM; IC50 (K562): 10 µM

Question: `COc1cc2c(cc1OC)/C(=N/NC(N)=S)CC2` was tested. Which EC50 [1] did it give?
Answer: 5.35 µM
